Experiments:
[1] = DSC of disturbed sample: solid state phase transformation to Form A; type: physicochemical; settings: sample disturbed (scratching/stressed), DSC heating from 30° C. to approximately 200° C. at 10° C. per minute; followed by melt of Form A at about 160° C.
Description: Characterization of Form A of cilostazol, Form B of cilostazol, and Form C of cilostazol was further completed using DSC thermograms, shown in FIGS. 3, 4, and 5, respectively, with DSC thermograms for combinations of Form A and Form B; Form B and Form C; and Forms A, B, and C are shown in FIGS. 6, 7, and 8 respectively. DSC data were generated using a Mettler-Toledo DSC 821^e(Columbus, Ohio) with a Julabo FT900 intercooler chiller (Julabo Company; Allentown, Pa.). In general, samples were analyzed in a vented, sealed aluminum pan. Because the endothermic peak may vary depending upon the rate of heating and the calibration and precision of the instrument, with the amount of peak variation dependent upon the heating rate used, all thermograms included herein were run under the same, consistent conditions: heating at 10° C. per minute under a nitrogen purge at 40 mL/minute. The resultant sample of Example 1A was disturbed with scratching, which caused the cilostazol sample to undergo a solid state phase transformation at approximately 119° C. followed by an endotherm of melt at approximately 160° C. (Form A) during heating by DSC from 30° C. to approximately 200° C. at 10° C. per minute. When the sample is stressed and reheated (as detailed in Example 2A), the sample undergoes a solid state phase transformation at approximately 147° C. followed by an endotherm of melt at about 160° C. […]

[2] = aqueous solubility of cilostazol polymorphic forms; type: physicochemical; settings: for solubility relative to Form A: suggested by lower melting point than Form A in DSC thermogram (FIG. 8)
[3] = stability of the polymorphic form; type: physicochemical
[4] = bioavailability; type: in vivo; settings: Form A as prepared by the procedures of the '479 patent

Row | SMILES | solid state phase transformation temperature [1] | solubility relative to Form A [2] | stability of the form [3] | bioavailability [4] | aqueous solubility ([2]; Form A as prepared by the procedures of the '479 patent)
1 | O=C1CCc2cc(OCCCCc3nnnn3C3CCCCC3)ccc2N1 [Form B, 6-[4-(1-cyclohexyl-1H-tetrazol-5-yl)butoxy]-3,4-dihydro-2(1H)-quinolinone] | approximately 119 °C | more soluble than Form A | stable |  | 
2 | O=C1CCc2cc(OCCCCc3nnnn3C3CCCCC3)ccc2N1 [Form A, 6-[4-(1-cyclohexyl-1H-tetrazol-5-yl)butoxy]-3,4-dihydro-2(1H)-quinolinone] |  |  |  | low | low
3 | O=C1CCc2cc(OCCCCc3nnnn3C3CCCCC3)ccc2N1 [Form C, 6-[4-(1-cyclohexyl-1H-tetrazol-5-yl)butoxy]-3,4-dihydro-2(1H)-quinolinone] | approximately 147 °C | more soluble than Form A | stable |  | 

— patent US6388080B1, “Polymorphic forms of 6-[4-(1-cyclohexyl-1H-tetrazol-5-yl)butoxy]-3,4-dihydro-2(1H)-quinolinone” (priority 2001, dated 2002)
